Read-outs that look alike come from different tables or passages of the source.
Columns and labels:
DOHH2 cells = experiment: Cell proliferation assay (MTS), DOHH2 cells; format: cell-based; conditions: DOHH2 (DSMZ ACC 47) cell proliferation, 5000 cells/well, 120 h, MTS, mechanism-based readout of Bcl-2 inhibition, read-out: DOHH2 IC50
Outline: (§1)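 RS4;11 (30000 cells/well, 72 h) and DOHH2 (5000 cells/well, 120 h) cells in RPMI-1640/10% FBS, treated at 37 °C with compound at 1.5–10000 nM final. Viability by MTS (2 h, SDS stop), absorbance 490 nm minus 650 nm reference; IC50 fitted.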

RS4; 11 cells = experiment: Cell proliferation assay (MTS), RS4; 11 cells; format: cell-based; conditions: RS4, 11 (ATCC CRL-1873) cell proliferation, 30000 cells/well, 72 h, MTS, mechanism-based readout of Bcl-2 inhibition, read-out: RS4, 11 IC50
Outline: as §1

IC50 (RS4; 11 cells; Homo sapiens, RS4-11, 72 h) [µM] | Molecule | IC50 (DOHH2 cells; Homo sapiens, DOHH-2, 120 h) [µM] | IC50 (DOHH2 cells) [µM] | IC50 (RS4; 11 cells) [µM]
0.02 | C[C@@H](CCN1CCC(N=S(C)(C)=O)CC1)Nc1ccc(S(=O)(=O)NC(=O)c2ccc(N3CCN(CC4=C(c5ccc(Cl)cc5)CC(C)(C)CC4)CC3)cc2Oc2cnc3[nH]ccc3c2)cc1[N+](=O)[O-] [Example 96, (S)-2-((1H-pyrrolo[2,3-b]pyridin-5-yl)oxy)-4-(4-((4′-chloro-5,5-dimethyl-3,4,5,6-tetrahydro-[1,1′-biphenyl]-2-yl)methyl)piperazin-1-yl)-N-((4-((4-(4-((dimethyl(oxo)-λ^6-sulfanylidene)amino)piperidin-1-yl)butan-2-yl)amino)-3-nitrophenyl)sulfonyl) benzamide] | 0.026 | – | –
0.018 | CC1(C)CCC(CN2CCN(c3ccc(C(=O)NS(=O)(=O)c4ccc(NCC5CCOCC5)c([N+](=O)[O-])c4)c(Oc4cnc5[nH]ccc5c4)c3)CC2)=C(c2ccc(Cl)cc2)C1 [Reference compound 1, 2-((1H-pyrrolo[2,3-b]pyridin-5-yl)oxy)-4-(4-((4′-chloro-5,5-dimethyl-3,4,5,6-tetrahydro-[1,1′-biphenyl]-2-yl)methyl)piperazin-1-yl)-N-((3-nitro-4-(((tetrahydro-2H-pyran-4-yl)methyl)amino)phenyl)sulfonyl)benzamide, reference compound] | 0.057 | – | –
0.006 | CC1(C)CCC(CN2CCN(c3ccc(C(=O)NS(=O)(=O)c4ccc(NCC5(F)CCC(N=S(C)(C)=O)CC5)c([N+](=O)[O-])c4)c(Oc4cnc5[nH]ccc5c4)c3)CC2)=C(c2ccc(Cl)cc2)C1 (stereo not shown) [Example 58, 2-((1H-pyrrolo[2,3-b]pyridin-5-yl)oxy)-4-(4-((4′-chloro-5,5-dimethyl-3,4,5,6-tetrahydro-[1,1′-biphenyl]-2-yl)methyl)piperazin-1-yl)-N-((4-(((4-((dimethyl(oxo)-λ^6-sulfanylidene)amino)-1-fluorocyclohexyl)methyl)amino)-3-nitrophenyl)sulfonyl)benzamide] | 0.016 | – | –
0.333 | CC1(C)CCC(CN2CCN(c3ccc(C(=O)NS(=O)(=O)c4ccc(NC(CF)CN5CCP(C)(=O)CC5)c([N+](=O)[O-])c4)c(Oc4cnc5[nH]ccc5c4)c3)CC2)=C(c2ccc(Cl)cc2)C1 (stereo not shown) [Example 20, 2-((1H-pyrrolo[2,3-b]pyridin-5-yl)oxy)-4-(4-((4′-chloro-5,5-dimethyl-3,4,5,6-tetrahydro-[1,1′-biphenyl]-2-yl)methyl)piperazin-1-yl)-N-((4-((1-fluoro-3-(4-methyl-4-oxido-1,4-azaphosphinan-1-yl)propan-2-yl)amino)-3-nitrophenyl)sulfonyl)benzamide] | 0.388 | – | –
0.043 | CC1(C)CCC(CN2CCN(c3ccc(C(=O)NS(=O)(=O)c4ccc(NCC5CCS(=O)(=NC6CC6)CC5)c([N+](=O)[O-])c4)c(Oc4cnc5[nH]ccc5c4)c3)CC2)=C(c2ccc(Cl)cc2)C1 (stereo not shown) [Example 5, 2-((1H-pyrrolo[2,3-b]pyridin-5-yl)oxy)-4-(4-((4′-chloro-5,5-dimethyl-3,4,5,6-tetrahydro-[1,1′-biphenyl]-2-yl)methyl)piperazin-1-yl)-N-((4-(((1-(cyclopropylimino)-1-oxidohexahydro-1λ^6-thiopyran-4-yl)methyl)amino)-3-nitrophenyl)sulfonyl)benzamide] | 0.092 | – | –
0.043 | CCN=S1(=O)CCC(CNc2ccc(S(=O)(=O)NC(=O)c3ccc(N4CCN(CC5=C(c6ccc(Cl)cc6)CC(C)(C)CC5)CC4)cc3Oc3cnc4[nH]ccc4c3)cc2[N+](=O)[O-])CC1 (stereo not shown) [Example 30, 2-((1H-pyrrolo[2,3-b]pyridin-5-yl)oxy)-4-(4-((4′-chloro-5,5-dimethyl-3,4,5,6-tetrahydro-[1,1′-biphenyl]-2-yl)methyl)piperazin-1-yl)-N-((4-(((1-(ethylimino)-1-oxidohexahydro-1λ^6-thiopyran-4-yl)methyl)amino)-3-nitrophenyl)sulfonyl) benzamide] | 0.132 | – | –
0.208 | CCOC(=O)N=S1(=O)CCN(C[C@H](C)Nc2ccc(S(=O)(=O)NC(=O)c3ccc(N4CCN(CC5=C(c6ccc(Cl)cc6)CC(C)(C)CC5)CC4)cc3Oc3cnc4[nH]ccc4c3)cc2S(=O)(=O)C(F)(F)F)CC1 [Example 76, ethyl (S)-(4-(2-((4-(N-(2-((1H-pyrrolo[2,3-b]pyridin-5-yl)oxy)-4-(4-((4′-chloro-5,5-dimethyl-3,4,5,6-tetrahydro-[1,1′-biphenyl]-2-yl)methyl)piperazin-1-yl)benzoyl)sulfamoyl)-2-((trifluoromethyl)sulfonyl)phenyl)amino)propyl)-1-oxido-1λ^6-thiomorpholin-1-ylidene) carbamate] | 0.247 | – | –
0.02 | CC1(C)CCC(CN2CCN(c3ccc(C(=O)NS(=O)(=O)c4ccc(NCC5CCC(N=S(C)(C)=O)CO5)c([N+](=O)[O-])c4)c(Oc4cnc5[nH]ccc5c4)c3)CC2)=C(c2ccc(Cl)cc2)C1 (stereo not shown) [Example 57, 2-((1H-pyrrolo[2,3-b]pyridin-5-yl)oxy)-4-(4-((4′-chloro-5,5-dimethyl-3,4,5,6-tetrahydro-[1,1′-biphenyl]-2-yl)methyl)piperazin-1-yl)-N-((4-(((5-((dimethyl(oxo)-λ^6-sulfanylidene)amino)tetrahydro-2H-pyran-2-yl)methyl)amino)-3-nitrophenyl)sulfonyl)benzamide] | 0.03 | – | –
0.012 | CC(=O)N=S1(=O)CCN(CCNc2ccc(S(=O)(=O)NC(=O)c3ccc(N4CCN(CC5=C(c6ccc(Cl)cc6)CC(C)(C)CC5)CC4)cc3Oc3cnc4[nH]ccc4c3)cc2[N+](=O)[O-])CC1 [Example 37, 2-((1H-pyrrolo[2,3-b]pyridin-5-yl)oxy)-N-((4-((2-(1-(acetylimino)-1-oxido-1λ^6-thiomorpholino)ethyl)amino)-3-nitrophenyl)sulfonyl)-4-(4-((4′-chloro-5,5-dimethyl-3,4,5,6-tetrahydro-[1,1′-biphenyl]-2-yl)methyl)piperazin-1-yl) benzamide] | 0.228 | – | –
0.01 | CC(C)C(=O)N=S1(=O)CCN(CC[C@H](C)Nc2ccc(S(=O)(=O)NC(=O)c3ccc(N4CCN(CC5=C(c6ccc(Cl)cc6)CC(C)(C)CC5)CC4)cc3Oc3cnc4[nH]ccc4c3)cc2[N+](=O)[O-])CC1 [Example 82, (S)-2-((1H-pyrrolo[2,3-b]pyridin-5-yl)oxy)-4-(4-((4′-chloro-5,5-dimethyl-3,4,5,6-tetrahydro-[1,1′-biphenyl]-2-yl)methyl)piperazin-1-yl)-N-((4-((4-(1-(isobutyrylimino)-1-oxido-1λ^6-thiomorpholino)butan-2-yl)amino)-3-nitrophenyl)sulfonyl)benzamide] | 0.018 | – | –
0.028 | CCN=S1(=O)CCN(C[C@H](C)Nc2ccc(S(=O)(=O)NC(=O)c3ccc(N4CCN(CC5=C(c6ccc(Cl)cc6)CC(C)(C)CC5)CC4)cc3Oc3cnc4[nH]ccc4c3)cc2[N+](=O)[O-])CC1 [Example 38, (S)-((1H-pyrrolo[2,3-b]pyridin-5-yl)oxy)-4-(4-((4′-chloro-5,5-dimethyl-3,4,5,6-tetrahydro-[1,1′-biphenyl]-2-yl)methyl)piperazin-1-yl)-N-((4-((1-(1-(ethylimino)-1-oxido-1λ^6-thiomorpholino)propan-2-yl)amino)-3-nitrophenyl)sulfonyl) benzamide] | 0.108 | – | –
0.184 | CC(C)OC(=O)N=S1(=O)CCN(CC[C@H](C)Nc2ccc(S(=O)(=O)NC(=O)c3ccc(N4CCN(CC5=C(c6ccc(Cl)cc6)CC(C)(C)CC5)CC4)cc3Oc3cnc4[nH]ccc4c3)cc2S(=O)(=O)C(F)(F)F)CC1 [Example 93, isopropyl (S)-(4-(3-((4-(N-(2-((1H-pyrrolo[2,3-b]pyridin-5-yl)oxy)-4-(4-((4′-chloro-5,5-dimethyl-3,4,5,6-tetrahydro-[1,1′-biphenyl]-2-yl)methyl)piperazin-1-yl)benzoyl)sulfamoyl)-2-((trifluoromethyl)sulfonyl)phenyl)amino)butyl)-1-oxido-1λ^6-thiomorpholin-1-ylidene) carbamate] | 0.537 | – | –
0.397 | CC1(C)CCC(CN2CCN(c3ccc(C(=O)NS(=O)(=O)c4ccc(NCC(CF)N5CCP(C)(=O)CC5)c([N+](=O)[O-])c4)c(Oc4cnc5[nH]ccc5c4)c3)CC2)=C(c2ccc(Cl)cc2)C1 (stereo not shown) [Example 13, 2-((1H-pyrrolo[2,3-b]pyridin-5-yl)oxy)-4-(4-((4′-chloro-5,5-dimethyl-3,4,5,6-tetrahydro-[1,1′-biphenyl]-2-yl)methyl)piperazin-1-yl)-N-((4-((3-fluoro-2-(4-methyl-4-oxido-1,4-azaphosphinan-1-yl)propyl)amino)-3-nitrophenyl)sulfonyl)benzamide] | 0.615 | – | –
– | (S)-2-((1H-pyrrolo[2,3-b] pyridin-5-yl)oxy)-4-(4-((4′- chloro-5,5-dimethyl- 3,4,5,6-tetrahydro-[1,1′- biphenyl]-2-yl)methyl) piperazin-1-yl)-N-((4-((1-(4- ((dimethyl(oxo)-λ^6- sulfanylidene)amino) piperidin-1-yl)propan-2-yl) amino)-3-nitrophenyl)sulfonyl) benzamide [Example 97] | – | 0.325 | 0.001
